Measured values published in the supplement of paper PMC10331698.
± gives the standard deviation of the averaged measurements.

Tests used:
Assay in all cases: level (log10 ratio to DMSO vehicle control); higher = higher biomarker level / cell amount than vehicle control
Settings in all cases: in DMSO
[1] = compound: O=S(=O)(O)C(F)(F)C(F)(F)C(F)(F)C(F)(F)C(F)(F)C(F)(F)C(F)(F)C(F)(F)F [Potassium perfluorooctanesulfonate]
Method: (§1)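 BioMAP Diversity Plus panel of 12 human primary cell co-culture systems (3C, 4H, LPS, SAg, BT, BF4T, BE3C, CASM3C, HDF3CGF, KF3CT, MyoF, Mphg). Compounds were added 1 h before stimulation and left for 24 h (MyoF 48 h; BT 72 h for soluble read-outs or 6 d for IgG). Biomarkers were read by ELISA, cytotoxicity by SRB, PBMC viability and proliferation by Alamar Blue. Each well value was divided by the mean of 8 DMSO control wells on the same plate and log10 transformed; duplicate blinded samples were tested at 4 concentrations.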

[2] = compound: O=C(O)C(F)(F)C(F)(F)C(F)(F)C(=O)O [Hexafluoroglutaric acid]
Method: as §1

[3] = compound: OCC(F)(F)C(F)(F)C(F)(F)F [1H,1H-Heptafluorobutanol]
Method: as §1

[4] = compound: NC(=O)C(F)(F)C(F)(F)C(F)(F)C(F)(F)C(F)(F)C(F)(F)C(F)(F)F [Perfluorooctanamide]
Method: as §1

Test System	level (log10) ([1]; 6700 nM)	level (log10) ([1]; 20000 nM)	level (log10) ([1]; 60000 nM)	level (log10) ([2]; 6700 nM)	level (log10) ([2]; 20000 nM)	level (log10) ([2]; 60000 nM)	level (log10) ([3]; 6700 nM)	level (log10) ([3]; 20000 nM)	level (log10) ([3]; 60000 nM)	level (log10) ([4]; 6700 nM)	level (log10) ([4]; 20000 nM)	level (log10) ([4]; 60000 nM)
LPS:CD141/Thrombomodulin	-0.0225 ± 0.028	-0.0215 ± 0.023	-0.025 ± 0.044	0.002 ± 0.0071	-0.022 ± 0.021	-0.0355 ± 0.032	0.01 ± 0.013	0.003 ± 0.016	-0.008 ± 0.011	-0.016 ± 0.03	-0.0075 ± 0.0064	-0.0155 ± 0.037
LPS:CD142/Tissue Factor	-0.0095 ± 0.019	-0.004 ± 0.0028	-0.002	0.0325 ± 0.08	-0.0085 ± 0.077	-0.0285 ± 0.081	0.012 ± 0.05	0.015 ± 0.034	-0.0125 ± 0.0078	-0.0585 ± 0.0092	0.0025 ± 0.032	-0.002 ± 0.0042
LPS:CXCL8/IL-8	0.0255 ± 0.067	0.0435 ± 0.0092	0.061 ± 0.05	-0.0235 ± 0.012	-0.0535 ± 0.018	-0.028 ± 0.067	0.0085 ± 0.013	-0.006	-0.025 ± 0.0014	-0.012 ± 0.024	-0.049 ± 0.023	-0.0335 ± 0.021
LPS:IL-1alpha	-0.022 ± 0.0014	-0.0195 ± 0.011	-0.0145 ± 0.012	-0.023 ± 0.02	-0.0325 ± 0.0064	0.002 ± 0.037	-0.028 ± 0.025	-0.068 ± 0.0085	0.0095 ± 0.015	-0.032 ± 0.033	-0.003 ± 0.047	-0.0395 ± 0.0092
LPS:M-CSF	-0.0215 ± 0.016	0 ± 0.024	0.008 ± 0.014	0.024 ± 0.047	-0.019 ± 0.028	-0.034 ± 0.051	0.011 ± 0.0071	-0.007 ± 0.055	0.006 ± 0.016	-0.0005 ± 0.022	-0.0205 ± 0.013	-0.067 ± 0.0085
LPS:SRB	-0.009 ± 0.018	-0.007 ± 0.021	-0.001 ± 0.0057	-0.0025 ± 0.011	-0.0065 ± 0.016	0.01 ± 0.025	-0.0085 ± 0.0035	0.005 ± 0.0014	-0.003 ± 0.0028	0.006 ± 0.013	0.001 ± 0.0099	-0.0015 ± 0.011
LPS:sPGE2	-0.033 ± 0.042	-0.0005 ± 0.03	-0.053 ± 0.096	-0.0265 ± 0.028	-0.039 ± 0.031	-0.0185 ± 0.069	0.025 ± 0.04	-0.0225 ± 0.052	0.009 ± 0.027	0.019 ± 0.035	0.0225 ± 0.025	0.0545 ± 0.036
LPS:sTNF-alpha	-0.03 ± 0.073	-0.047 ± 0.1	-0.0915 ± 0.15	0.0045 ± 0.026	-0.0025 ± 0.022	0.0035 ± 0.0064	0.005	0.0015 ± 0.019	-0.0155 ± 0.032	-0.036 ± 0.034	-0.025 ± 0.0085	-0.028 ± 0.0071
SAg:CCL2/MCP-1	-0.015 ± 0.0071	-0.0025 ± 0.0021	0.004 ± 0.013	-0.028 ± 0.0071	-0.0205 ± 0.0035	-0.0205 ± 0.016	0.0075 ± 0.019	0.0065 ± 0.025	0.008 ± 0.05	-0.008 ± 0.021	-0.02 ± 0.018	-0.0085 ± 0.042
SAg:CD38	-0.0085 ± 0.0092	-0.01 ± 0.013	-0.023 ± 0.02	-0.002 ± 0.0071	-0.0075 ± 0.00071	0.0075 ± 0.021	-0.028 ± 0.064	-0.0145 ± 0.015	-0.0115 ± 0.088	0.0005 ± 0.005	0.0085 ± 0.028	0.003 ± 0.018
SAg:CD40	-0.005 ± 0.0057	-0.0205 ± 0.039	-0.032 ± 0.042	-0.012 ± 0.0014	-0.0225 ± 0.022	0.0095 ± 0.0092	-0.011 ± 0.018	0.0045 ± 0.0092	0.0175 ± 0.074	-0.0215 ± 0.028	-0.0195 ± 0.0064	-0.021 ± 0.033
SAg:CD62E/E-Selectin	-0.004 ± 0.0057	0.0315 ± 0.013	0.033	-0.004 ± 0.033	-0.008 ± 0.052	-0.0025 ± 0.0078	0.003 ± 0.013	0.01 ± 0.038	0.0125 ± 0.053	-0.0135 ± 0.035	-0.0265 ± 0.00071	0.0145 ± 0.0092
SAg:CD69	-0.0075 ± 0.013	-0.002 ± 0.014	-0.002 ± 0.021	-0.0125 ± 0.0064	-0.016 ± 0.013	0.005 ± 0.0042	-0.013 ± 0.017	-0.0035 ± 0.016	0.02 ± 0.016	-0.002 ± 0.028	0.0025 ± 0.013	-0.0065 ± 0.023
SAg:CXCL8/IL-8	-0.0055 ± 0.018	0.0145 ± 0.036	0.025 ± 0.027	-0.011	-0.041 ± 0.042	0.0285 ± 0.077	0.012 ± 0.0085	-0.0055 ± 0.0021	-0.0045 ± 0.1	-0.019 ± 0.041	-0.0255 ± 0.0021	0.056
SAg:CXCL9/MIG	-0.0135 ± 0.00071	0.005 ± 0.0057	-0.0035 ± 0.019	-0.0015 ± 0.00071	-0.012 ± 0.0042	-0.0005 ± 0.005	-0.003 ± 0.031	-0.001 ± 0.018	0.018 ± 0.014	-0.0075 ± 0.005	-0.0025 ± 0.012	0.009 ± 0.0057
SAg:PBMC Cytotoxicity	0.0165 ± 0.0092	0.012 ± 0.013	0.0315 ± 0.029	0.0035 ± 0.0078	0.014 ± 0.0042	-0.005 ± 0.058	-0.0165 ± 0.012	-0.024 ± 0.024	0.0155 ± 0.047	-0.027 ± 0.038	-0.0135 ± 0.025	0.024 ± 0.034
SAg:Proliferation	0.0005 ± 0.0021	0.0495 ± 0.0035	0.066 ± 0.051	-0.019 ± 0.0071	-0.0445 ± 0.033	-0.0275 ± 0.013	0.009 ± 0.0042	0.008 ± 0.02	0.0125 ± 0.021	-0.05 ± 0.071	-0.0255 ± 0.033	-0.001 ± 0.0014
SAg:SRB	-0.0055 ± 0.028	-0.0255 ± 0.035	-0.0335 ± 0.0035	-0.0055 ± 0.00071	-0.0105 ± 0.016	-0.0035 ± 0.016	-0.0055 ± 0.011	0.0045 ± 0.0035	0.004 ± 0.0057	0.002 ± 0.0071	-0.0005 ± 0.0064	-0.009 ± 0.0014
